Laboratory results published in the supplement of paper PMC10307832.

What was measured:
Experiment in all cases: relative viability (nuclei count vs DMSO), 5 days (fraction); higher = more cells survive
Mirin + Pemetrexed = compound: N=C1NC(=O)/C(=C/c2ccc(O)cc2)S1 [Mirin] + Nc1nc2[nH]cc(CCc3ccc(C(=O)N[C@@H](CCC(=O)O)C(=O)O)cc3)c2c(=O)[nH]1 [Pemetrexed] (partner 0.2 µM)
In short: (§1)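 Lung cancer cell lines were seeded in 1536-well plates and dosed by pin tool the next day, with either a single drug or a fixed anchor-drug dose combined with five library-drug doses (not always all listed) spaced in √10 steps. Five days later, one step fixed the cells and stained their nuclei (final 0.05% Triton X-100, 1% formaldehyde, 1 ug/ml Hoechst), and nuclei were counted on 4× images. Relative viability is the nuclei count in treated wells divided by the count in vehicle wells, and each value is the median of duplicate plates.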

Mirin + Navitoclax = compound: N=C1NC(=O)/C(=C/c2ccc(O)cc2)S1 [Mirin] + CC1(C)CCC(c2ccc(Cl)cc2)=C(CN2CCN(c3ccc(C(=O)NS(=O)(=O)c4ccc(N[C@H](CCN5CCOCC5)CSc5ccccc5)c(S(=O)(=O)C(F)(F)F)c4)cc3)CC2)C1 [Navitoclax] (partner 0.5 µM)
In short: as §1

Mirin + Dasatinib = compound: N=C1NC(=O)/C(=C/c2ccc(O)cc2)S1 [Mirin] + Cc1nc(Nc2ncc(C(=O)Nc3c(C)cccc3Cl)s2)cc(N2CCN(CCO)CC2)n1 [Dasatinib] (partner 0.075 µM)
In short: as §1

Mirin + Foretinib = compound: N=C1NC(=O)/C(=C/c2ccc(O)cc2)S1 [Mirin] + COc1cc2c(Oc3ccc(NC(=O)C4(C(=O)Nc5ccc(F)cc5)CC4)cc3F)ccnc2cc1OCCCN1CCOCC1 [Foretinib] (partner 0.25 µM)
In short: as §1

Cell Line	relative viability (Mirin + Pemetrexed; first compound 0.25 µM)	relative viability (Mirin + Pemetrexed; first compound 0.7906 µM)	relative viability (Mirin + Pemetrexed; first compound 2.5 µM)	relative viability (Mirin + Pemetrexed; first compound 7.906 µM)	relative viability (Mirin + Pemetrexed; first compound 25 µM)	relative viability (Mirin + Navitoclax; first compound 0.25 µM)	relative viability (Mirin + Navitoclax; first compound 0.7906 µM)	relative viability (Mirin + Navitoclax; first compound 2.5 µM)	relative viability (Mirin + Navitoclax; first compound 7.906 µM)	relative viability (Mirin + Navitoclax; first compound 25 µM)	relative viability (Mirin + Dasatinib; first compound 0.25 µM)	relative viability (Mirin + Dasatinib; first compound 0.7906 µM)	relative viability (Mirin + Dasatinib; first compound 2.5 µM)	relative viability (Mirin + Dasatinib; first compound 7.906 µM)	relative viability (Mirin + Dasatinib; first compound 25 µM)	relative viability (Mirin + Foretinib; first compound 0.25 µM)	relative viability (Mirin + Foretinib; first compound 0.7906 µM)	relative viability (Mirin + Foretinib; first compound 2.5 µM)	relative viability (Mirin + Foretinib; first compound 7.906 µM)	relative viability (Mirin + Foretinib; first compound 25 µM)
NCI-H1734	0.441	0.44	0.414	0.355	0.346	0.838	0.746	0.793	0.742	0.771	0.484	0.436	0.469	0.45	0.438	0.847	0.739	0.788	0.849	0.702
NCI-H1755	0.38	0.402	0.404	0.348	0.384	1.03	1.11	1.03	1.09	1.14	0.396	0.383	0.391	0.389	0.436	1	0.918	0.963	0.931	1.05
NCI-H1793	0.862		0.895	1.11	0.977	0.55	0.36	0.395	0.656	0.371	0.481		0.391	0.409	0.344	0.731		0.739	0.777	0.559
NCI-H1915	0.469	0.484	0.504	0.434	0.433	0.775		0.76	0.743	0.866	0.308		0.332	0.342	0.31	1.06		1.12	0.948	0.975
NCI-H1944	0.636	0.627	0.598	0.558	0.598	1.03		1.07	1.08	0.861	0.218	0.244	0.2	0.218	0.224	0.824	0.95	0.888	0.814	0.557
NCI-H1975	0.324	0.256	0.272	0.274	0.252	1.05	1.07	1.11	1.14	0.994	0.437	0.482	0.384	0.417	0.354	0.934	0.914	0.98	0.919	0.973
NCI-H1993	0.625	0.633	0.578	0.541	0.584	1.03	1.02	0.913	0.932	0.749	0.518		0.678	0.455	0.556	0.716		0.821	0.76	0.824
NCI-H2009	1.05	1.11	1.01	0.964	1.16	1.17	1.3	1.18	1.11	1.2	0.292	0.341	0.323	0.227	0.139	1.19	1.33	1.2	1.19	1.17
NCI-H2023	0.254	0.258	0.218	0.247	0.156	0.991	0.963	1.01	0.995	0.972	0.562	0.541	0.548	0.463	0.335	0.806	0.837	0.993	0.894	0.919
NCI-H2085	0.919	1.03	0.932	0.925	0.932	0.978	1.17	1.25	1.12	1.09	0.229	0.207	0.28	0.252	0.237	0.948	0.999	0.941	1.1	1
NCI-H2087	0.69	0.715	0.66	0.678	0.708	1.01	1.21	0.944	1.27	1.03	1.06	0.869	0.752	0.958	0.677	1.24	1.28	1	0.943	1.08
NCI-H2126	0.754	0.574	0.758	0.855	0.686	0.811	0.81	0.819	0.852	0.85	0.631	0.58	0.601	0.517	0.514	1.35	1.02	1.31	1.16	1.13
NCI-H2170	0.249	0.282	0.268	0.263	0.28	0.698	0.51	0.659	0.521	0.375	0.551	0.498	0.519	0.489	0.468	1.05	1	1.02	0.928	0.98
NCI-H2228	0.394	0.301	0.291	0.315	0.364	1.2	0.972	1.35	1.18	1.03	0.594	0.458	0.516	0.448	0.412	0.689	0.883	0.974	1.1	0.752
NCI-H2347	0.424	0.474	0.47	0.422	0.473	0.8	0.784	0.812	0.825	0.893	0.336	0.316	0.344	0.287	0.273	1.08	0.652	1.17	0.683	0.879
NCI-H2405	1.1		1.16	1.14	1.07	0.812	0.97	0.742	0.641	0.73	0.195	0.252	0.206	0.206	0.192	1.04	1.04	1.01	1.03	1.07
NCI-H3122	0.195	0.213	0.209	0.208	0.264	1.01	1.1	1.01	1.09	1.15	0.892	0.419	0.807	0.685	0.665	0.919	0.906	0.934	1.08	1.09
